Results published in ChEMBL document CHEMBL1201862, “PubChem BioAssay data set” (2004).
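Step 1: Grow cells in 96-well plates. Step 2: Expose to compound for 48 hours at 5 concentrations. Step 3: Interpolate endpoints linearly; if unreached, use highest concentration. GI50 marks 50% less growth.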 Calls of active or inactive are those of the source. Cut-off read from the data, not from the text of the source: active = GI50 up to about 1.1 µM and inactive = higher.

Legend:
Experiment in all cases: inhibition of tumour cell growth, NCI panel, 48 h
A549 = system: A549
ACHN = system: ACHN
CCRF-CEM = system: CCRF-CEM
EKVX = system: EKVX
HCT-116 = system: HCT-116
HL-60 = system: HL-60
IGROV-1 = system: IGROV-1
K562 = system: K562
MOLT-4 = system: MOLT-4
Malme-3M = system: Malme-3M
NCI-H460 = system: NCI-H460
OVCAR-4 = system: OVCAR-4
RPMI-8226 = system: RPMI-8226
SF-268 = system: SF-268
SF-295 = system: SF-295
SK-MEL-28 = system: SK-MEL-28
SNB-19 = system: SNB-19
TK-10 = system: TK-10
UACC-257 = system: UACC-257
UO-31 = system: UO-31

Measured: GI50

CC(C)(C)OC(=O)NCCc1ccc(N)cc1
inactive: A549 > 100 µM | ACHN > 100 µM | CCRF-CEM > 100 µM | EKVX > 100 µM | HCT-116 > 100 µM | HL-60 17.5 µM | IGROV-1 > 100 µM | K562 66.5 µM | MOLT-4 37.2 µM | Malme-3M > 100 µM | NCI-H460 > 100 µM | OVCAR-4 > 100 µM | RPMI-8226 58.6 µM | SF-268 > 100 µM | SF-295 49.2 µM | SK-MEL-28 > 100 µM | SNB-19 > 100 µM | TK-10 > 100 µM | UACC-257 72.8 µM | UO-31 4.2 µM

O=C(O)C(Cl)(Cl)Cl
inactive: A549 > 100 µM | ACHN > 100 µM | CCRF-CEM > 100 µM | EKVX > 100 µM | HCT-116 > 100 µM | HL-60 > 100 µM | IGROV-1 > 100 µM | K562 > 100 µM | MOLT-4 > 100 µM | Malme-3M > 100 µM | NCI-H460 > 100 µM | OVCAR-4 > 100 µM | RPMI-8226 > 100 µM | SF-268 > 100 µM | SF-295 > 100 µM | SK-MEL-28 > 100 µM | SNB-19 > 100 µM | TK-10 > 100 µM | UACC-257 > 100 µM | UO-31 > 100 µM

CC(C)(C)OC(=O)C1=C(C(=O)OC(C)(C)C)SC2(S1)C(C(=O)OC(C)(C)C)=C(C(=O)OC(C)(C)C)Sc1c2ssc1=O
inactive: A549 72.3 µM | ACHN 44.1 µM | CCRF-CEM 18.1 µM | EKVX 79.3 µM | HCT-116 47.3 µM | HL-60 39.4 µM | IGROV-1 59.4 µM | K562 41.3 µM | MOLT-4 7.67 µM | Malme-3M > 100 µM | NCI-H460 51.2 µM | OVCAR-4 24.6 µM | RPMI-8226 48.1 µM | SF-268 60.1 µM | SF-295 > 100 µM | SK-MEL-28 73.1 µM | SNB-19 > 100 µM | TK-10 > 100 µM | UACC-257 > 100 µM | UO-31 56.8 µM
